Reference: patent US9493446B2, “Orexin receptor antagonists which are [ortho bi-(hetero-)aryl]-[2-(meta bi-(hetero-)aryl)-pyrrolidin-1-yl]-methanone derivatives” (Actelion Pharmaceuticals Ltd, priority 2012, dated 2016)
Read-outs that look alike come from different tables or passages of the source.

Assays:
[1] = system: rodents; conditions: cited from earlier work
[2] = system: rodents; conditions: conditioned reinforcer; cited from earlier work
[3] = biological target: T1, orexin-1 (Homo sapiens (Human), UniProt O43613); conditions: cited from earlier work
T1 sequence (O43613 whole entry): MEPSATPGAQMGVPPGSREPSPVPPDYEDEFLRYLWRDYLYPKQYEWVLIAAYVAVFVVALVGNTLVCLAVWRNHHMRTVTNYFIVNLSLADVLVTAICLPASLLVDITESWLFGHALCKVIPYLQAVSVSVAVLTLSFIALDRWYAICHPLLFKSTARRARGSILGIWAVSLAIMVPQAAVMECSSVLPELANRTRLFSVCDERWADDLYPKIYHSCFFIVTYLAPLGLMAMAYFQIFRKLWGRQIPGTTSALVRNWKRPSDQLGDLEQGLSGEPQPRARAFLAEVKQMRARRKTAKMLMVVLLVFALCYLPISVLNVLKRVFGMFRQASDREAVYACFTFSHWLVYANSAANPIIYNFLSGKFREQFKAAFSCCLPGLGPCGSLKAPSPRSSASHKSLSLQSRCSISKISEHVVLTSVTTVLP

[4] = system: rat; conditions: cited from earlier work
[5] = system: amyloid precursor protein transgenic mice; conditions: after acute sleep restriction, APP transgenic mice; cited from earlier work
[6] = system: fasted hungry rats; conditions: fasted hungry rats exposed to food odors; cited from earlier work
[7] = system: rats; conditions: cited from earlier work
[8] = system: humans; conditions: primary insomnia; cited from earlier work
[9] = system: rat; conditions: cited from earlier work; remark: listed apart in the source
[10] = system: mouse; conditions: administered chronically; cited from earlier work
[11] = system: rat; conditions: cited from earlier work; remark: listed apart in the source
[12] = biological target: human orexin-2 receptor (Homo sapiens (Human), UniProt O43614); experiment: Intracellular calcium measurement (FLIPR), CHO cells expressing human orexin-2 receptor, 3 nM orexin-A; assay type: cell-based; conditions: CHO cells expressing human orexin-2 receptor, FLIPR, 3 nM orexin-A; geometric mean if determined several times; read-out: IC50 OX2
Chain of human orexin-2 receptor (O43614 whole entry): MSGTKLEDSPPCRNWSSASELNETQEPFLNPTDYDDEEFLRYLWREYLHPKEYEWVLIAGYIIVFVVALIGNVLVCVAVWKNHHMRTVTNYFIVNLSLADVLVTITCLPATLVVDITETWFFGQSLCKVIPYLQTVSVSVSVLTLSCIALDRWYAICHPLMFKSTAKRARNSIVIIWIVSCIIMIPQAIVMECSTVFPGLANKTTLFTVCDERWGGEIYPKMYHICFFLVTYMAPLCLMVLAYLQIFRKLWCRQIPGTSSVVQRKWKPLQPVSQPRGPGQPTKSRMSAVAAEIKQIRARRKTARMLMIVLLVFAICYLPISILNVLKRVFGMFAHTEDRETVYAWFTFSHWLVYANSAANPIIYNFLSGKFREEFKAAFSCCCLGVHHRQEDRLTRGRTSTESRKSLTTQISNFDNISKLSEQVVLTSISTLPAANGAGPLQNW
Outline: (§1)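 Antagonist is added 120 min before agonist. Fluo-4 AM-loaded CHO cells carry human orexin-1 or orexin-2 receptor, and calcium is read by FLIPR.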

[13] = Measurement of brain and systemic concentration after oral administration; assay type: in vivo; conditions: rat, 3 h after oral administration (100 mg/kg), n=3, male wistar rats;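 on concentration in plasma [P]: unit ng/mL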
Protocol: Measurement of Brain and Systemic Concentration after Oral Administration:
In order to assess brain penetration, the concentration of the compound is measured in plasma ([P]), and brain ([B]), sampled 3 h (or at different time points) following oral administration (e.g. 100 mg/kg) to male wistar rats. The compounds are formulated e.g. in 100% PEG 400. Samples are collected in the same animal at the same time point (+/−5 min). Blood is sampled from the vena cava caudalis into containers with EDTA as anticoagulant and centrifuged to yield plasma. Brain is sampled after cardiac perfusion of 10 mL NaCl 0.9% and homogenized into one volume of cold phosphate buffer (pH 7.4). All samples are extracted with MeOH and analyzed by LC-MS/MS. Concentrations are determined with the help of calibration curves.

[14] = system: Wistar rats; experiment: Sleep effects: EEG, EMG and behavioural indices of alertness by radiotelemetry; assay type: in vivo; conditions: 30 mg/kg po; effects analyzed over 12 hours; compared to vehicle controls
Protocol: Sleep Effects: EEG, EMG and Behavioural Indices of Alertness Recorded by Radiotelemetry In Vivo in Wistar Rats.
Electroencephalography (EEG) and Electromyography (EMG) signals were measured by telemetry using TL11M2-F20-EET miniature radiotelemetric implants (Data Science Int.) with two pairs of differential leads.
Surgical implantation was performed under general anesthesia with Ketamin/Xylazin, for cranial placement of one differential pair of EEG electrodes and one pair of EMG leads inserted in either side of the muscles of the neck. After surgery, rats recovered in a thermoregulated chamber and received analgesic treatment with subcutaneous buprenorphine twice a day for 2 d. They were then housed individually and allowed to recover for a minimum of 2 weeks. Thereafter, rats—in their home cage—were placed in a ventilated sound-attenuating box, on a 12-h light/12-h dark cycle, for acclimatization before continuous EEG/EMG recordings started. The telemetric technology that we used in this study allows accurate and stress-free acquisition of biosignals in rats placed in their familiar home cage environment, with no recording leads restricting their movements. Variables analyzed included four different stages of vigilance and sleep, spontaneous activity in the home cage and body temperature. Sleep and wake stages were evaluated using a rodent scoring software (Somnologica Science) directly processing electrical biosignals on 10 s contiguous epochs. The scoring is based on frequency estimation for EEG and amplitude discrimination for EMG and locomotor activity. Using these measurements, the software determines the probability that all components within each epoch best represent active waking (AW), quiet waking (QW), non-REM-sleep (NREM) or REM-sleep (REM). The percentage of total time spent in AW, QW, NREM- and REM-sleep was calculated per 12 h light or dark period. The latency to the onset of the first significant NREM- and REM-sleep episodes and the number and duration of those episodes were also calculated. AW, QW, NREM- and REM-sleep, home cage activity and body temperature were measured at baseline for at least one total circadian cycle (12 h-night, 12 h-day) before a test compound was administered. […] All variables were subsequently recorded for 12 h following administration of the orexin receptor antagonist.

[15] = biological target: T1, orexin-1; experiment: Intracellular calcium measurement (FLIPR), CHO cells expressing human orexin-1 receptor, 3 nM orexin-A; assay type: cell-based; conditions: CHO cells expressing human orexin-1 receptor, FLIPR, 3 nM orexin-A; geometric mean if determined several times; read-out: IC50 OX1
Outline: as §1

In the case of `Cn1c(SCC(=O)N2CCC[C@H]2C(=O)Nc2ccccc2-c2ccccc2)nc2ccccc21` [N-Biphenyl-2-yl-1-{[(1-methyl-1H-benzimidazol-2-yl)sulfanyl]acetyl}-L-prolinamide], the “behavioral and molecular changes induced by repeated amphetamine” value [1] is listed as “reduced behavioral (locomotor sensitization) and molecular (transcriptional responses) changes” and the nicotine-reinstatement [2] is listed as “inhibited nicotine-reinstatement for a conditioned reinforcer”.
In the case of `Cc1nc(C(=O)N2CCC[C@H]2Cc2nnc(-c3ccccc3)o2)c(-c2ccccc2F)s1` [1-(5-(2-fluoro-phenyl)-2-methyl-thiazol-4-yl)-1-[(S)-2-(5-phenyl-[1,3,4]oxadiazol-2-ylmethyl)-pyrrolidin-1-yl)-methanone], the orexin receptor selectivity [3] is given as “highly orexin-1 selective”.
In the case of `CNC(=O)[C@@H](c1ccccc1)N1CCc2cc(OC)c(OC)cc2[C@@H]1CCc1ccc(C(F)(F)F)cc1` [(2R)-2-{(1S)-6,7-dimethoxy-1-[2-(4-trifluoromethyl-phenyl)-ethyl]-3,4-dihydro-1H-isoquinolin-2-yl}-N-methyl-2-phenyl-acetamide], the “pharmacological activity in nicotine self-administration” value [4] is given as “displayed pharmacological activity”, the “brain levels of amyloid-beta and plaque deposition” value [5] is given as “decreased brain levels of amyloid-beta (Aβ) as well as Aβ plaque deposition” and the “natural activation induced by orexin A” value [6] is given as “attenuate the natural activation induced by orexin A”. For the same compound, the “cardiovascular responses to conditioned fear and novelty exposure” value [7] was “attenuated cardiovascular responses to conditioned fear and novelty exposure”, the clinical efficacy [8] was “showed clinical efficacy” and the “alertness (active wake and locomotion)” value [9] was “decrease alertness”. For the same compound, the “time spent in REM and NREM sleep” value [9] was “dose-dependently increase the time spent in both REM and NREM sleep”, the antidepressant-like activity [10] was “induce antidepressant-like activity” and the “activity in fear-potentiated startle paradigm” value [11] was “active”.
`C[C@@]1(c2nnc(-c3ccccc3OC(F)(F)F)[nH]2)CCCN1C(=O)c1ccc(Cl)cc1-n1nccn1` [Example 544, (4-Chloro-2-[1,2,3]triazol-2-yl-phenyl)-{(S)-2-methyl-2-[5-(2-trifluoromethoxy-phenyl)-4H-[1,2,4]triazol-3-yl]-pyrrolidin-1-yl}-methanone] gave an IC50 [12] of 6 nM, a concentration at 3 h ([13]; brain, read-out: concentration in brain [B]) of 1120 ng/g and a concentration at 3 h ([13]; plasma, read-out: concentration in plasma [P]) of 1070 ng/mL. The “effect on NREM sleep” value [14] was “+19.4%”, the “effect on REM sleep” value [14] was “+5.6%” and the “effect on active wake” value [14] was −9.6%. The “effect on home cage activity” value [14] was −18.5% and the IC50 [15] was 5 nM.
